Results published in PMC9639651, “8-Aminoinosine and 8-Aminohypoxanthine Inhibit Purine Nucleoside Phosphorylase and Exert Diuretic and Natriuretic Activity” (The Journal of Pharmacology and Experimental Therapeutics, 2022).
One block for each molecule: values may come before it.

Key:
[1] = target: T1, recombinant human purine nucleoside phosphorylase (rhPNPase) (Homo sapiens, UniProt P00491); test: HPLC-UV enzyme kinetics, competitive inhibition of inosine metabolism; also Michaelis-Menten turnover to 8-aminohypoxanthine; format: biochemical
T1 construct: gene PNP
T1 sequence (P00491 1-289): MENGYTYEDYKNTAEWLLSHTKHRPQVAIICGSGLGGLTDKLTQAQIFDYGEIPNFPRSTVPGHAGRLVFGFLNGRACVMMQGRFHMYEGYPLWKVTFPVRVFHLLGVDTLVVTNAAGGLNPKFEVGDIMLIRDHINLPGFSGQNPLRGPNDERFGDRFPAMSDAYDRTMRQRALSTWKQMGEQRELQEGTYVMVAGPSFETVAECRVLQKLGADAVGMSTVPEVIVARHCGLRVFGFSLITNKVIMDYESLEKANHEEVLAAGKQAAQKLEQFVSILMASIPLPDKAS

[2] = target: T1, recombinant human purine nucleoside phosphorylase (rhPNPase); test: Michaelis-Menten kinetics by HPLC-UV; also inhibits metabolism of 8-aminoinosine; format: biochemical
[3] = target: T1, recombinant human purine nucleoside phosphorylase (rhPNPase); test: HPLC-UV enzyme kinetics, guanosine as substrate (Ki […] with inosine), competitive inhibition fit; format: biochemical
[4] = target: T1, recombinant human purine nucleoside phosphorylase (rhPNPase); test: biochemical

Ki [1]: 35 µM
Compound: Nc1nc2c(O)ncnc2n1[C@@H]1O[C@H](CO)[C@@H](O)[C@H]1O [8AI, 8-aminoinosine]

Compound: O=c1[nH]cnc2c1ncn2[C@@H]1O[C@H](CO)[C@@H](O)[C@H]1O [inosine]
Michaelis-Menten kinetics by HPLC-UV; also inhibits metabolism of 8-aminoinosine [2]: inosine competitively inhibits the metabolism of 8-aminoinosine to 8-aminohypoxanthine

Ki [3]: 20 µM
Compound: Nc1nc2nc[nH]c(=O)c2[nH]1 [8AHX, 8-aminohypoxanthine]

Ki [4]: 2800 nM
Compound: Nc1nc2[nH]c(N)nc2c(=O)[nH]1 [8AG, 8-aminoguanine]
